Measured values: US12037324B2, “Biarylmethyl heterocycles” (Université de Montréal, priority 2016, dated 2024)
Counter-ions that a name gives are not always drawn.

Columns and labels:
Type in all cases: cell-based
AGTR1 = biological target: T1, AGTR1 (Homo sapiens, UniProt P30556); test: DiscoveRx β-arrestin2 recruitment assay (enzyme complementation, Pathunter CHO-K1 AGTR1 β-arrestin cell line); settings: DiscoveRx β-arrestin2 recruitment; for DiscoveRx β-arrestin2 Ymax (%): maximal response
T1 construct: host or cells: Pathunter CHO-K1 AGTR1 β-arrestin cell line (CHO-K1)
T1 sequence (P30556 1-359): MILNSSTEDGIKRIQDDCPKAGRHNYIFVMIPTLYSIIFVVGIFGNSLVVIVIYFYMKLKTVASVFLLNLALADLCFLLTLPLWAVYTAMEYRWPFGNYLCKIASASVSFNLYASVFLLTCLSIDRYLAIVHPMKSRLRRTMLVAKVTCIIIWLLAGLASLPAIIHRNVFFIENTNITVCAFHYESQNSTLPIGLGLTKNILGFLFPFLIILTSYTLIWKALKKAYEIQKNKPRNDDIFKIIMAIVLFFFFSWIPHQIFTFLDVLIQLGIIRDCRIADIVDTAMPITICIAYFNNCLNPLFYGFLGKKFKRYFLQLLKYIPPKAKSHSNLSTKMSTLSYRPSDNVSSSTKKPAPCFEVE
In short: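 CHO-K1 cells expressing AGTR1 with β-arrestin2 enzyme-complementation reporter, plated 14-16 h ahead in 1% serum medium, then exposed to compounds for 90 min at 37° C. Chemiluminescence read after 1 h detection. EC50 (agonist) or IC50 (antagonist) from 4-parameter logistic fit; activity as percentage of All maximal effect.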

hAT1R [1] = biological target: T2, hAT1R (Homo sapiens, UniProt P30556); test: BRET β-arrestin2 biosensor assay, higher receptor expression (hAT1R 5 ng/well), HEK293 cells; settings: for EC50: High AT1R Expression
T2 sequence (P30556 1-359): T1 sequence (P30556 1-359)

hAT1R [2] = biological target: T2, hAT1R; test: BRET Gq biosensor assay, agonist response, HEK293 cells; settings: section of the 42nd table directly before the BRET P63 section
Experimental: BRET β-arrestin2 and Gq Activation Assays
In another aspect of the invention, association of the ATIR with signaling proteins is assessed using bioluminescence resonance energy transfer assays (Stephane Angers, Ali Salahpour et al. 2002). This technology measures the association between bioluminescent and fluorescent protein tags.
Several of the plasmid constructs used in BRET experiments were previously described. Briefly, the coding sequence of β-arrestin2 was fused to Renilla luciferase II to generate β-arrestin2-Rluc (Quoyer, Janz et al. 2013). The membrane targeting motif from K-Ras, CAAX motif (GKKKKKKSKTKCVIM), was fused to Renilla GFP to create rGFP-CAAX plasmid (Namkung Y et al., Nat Commun (2016) 7, 12178). The Renilla luciferase II was inserted in the Gaq protein to generate Gaq-Rluc (Breton, Sauvageau et al. 2010). The Gγ1 protein was tagged with GFP10 to obtain GFP-Gyl, using the same strategy described previously for GFP-Gy2 (Gales, Rebois et al. 2005). The Gaq binding domain of the p63RhoGEF protein (amino acids 295-502) was fused to Renilla luciferase II to create P63-Rluc. Finally, the hAT1R plasmid construct encoding the receptor was generated by optimizing the coding sequence of human angiotensin II receptor (GeneOptimizer from ThermoFisher), and adding an artificial cleavable signal peptide from bovine prolactin ([…]) in N-terminus of the receptor to increase cell surface expression.
Gq Biosensor Assay HEK293 cells were cultured in DMEM supplemented with Penicillin-Streptomycin and 10% fetal bovine serum. Two days before the BRET experiment, HEK293 cells were transfected with hAT1R expression plasmid (200 ng/well) as well as Gaq-Rluc (100 ng/well), Gβ1 (375 ng/well) and GFP-Gγ1 (625 ng/well), using linear polyethylenimine 25 kDa (PEI) at a PEI:DNA ratio of 3:1. Transfected cells were directly seeded in 96-well plates, at a density of 35 000 cells per well, and maintained in culture for the next 48 h.
BRET experiments were carried out subsequently using the following procedures: cells were washed once with Tyrode's buffer (137 mM NaCl, 1 mM CaCl2, 0.9 mM KCl, […], 3.6 mM NaH2PO4, 5.5 mM glucose, 12 mM NaHCO3, and 25 mM HEPES, pH 7.4) and 90 μl of Tyrode's buffer was added to each well. Cells were equilibrated in their new buffer at room temperature for at least 30 minutes. Following the equilibration period, the coelenterazine substrate was first added to the cells, 10 μl per well of a 10×solution (prolume purple coelenterazine at a final concentration of 2 μM), immediately followed by compound addition using the HP D300 digital dispenser from Tecan (10 singlicate concentrations). Cells were incubated for 5 min at room temperature and BRET readings were then collected using a Synergy Neo Multi-Mode reader from BioTek with BRET2 filters 410/515, to record agonist response. […] A second reading was collected 5 min after this second addition, using the Synergy Neo Multi-Mode reader from BioTek with BRET2 filters 410/515, to record antagonist response. The BRET signal was determined by calculating the ratio of the light emitted by GFP (515 nm) over the light emitted by the Rluc (410 nm). To analyze agonist response, BRET signal values were converted into percentage of activation using the non-stimulated control as 0% and AngII maximal response as 100%. Sigmoidal concentration-response curves were generated with those normalized values using a 4-parameter logistic equation (IDBS ActivityBase software), to determine EC50 of the different compounds. In the case of antagonist response analysis, BRET signal values were converted into percentage of inhibition using the fixed dose of AngII (corresponding to the EC50) as 0% and non-stimulated control as 100%. Sigmoidal concentration-response curves were generated with those normalized values using a 4-parameter logistic equation (IDBS ActivityBase software), to determine IC50 of the different compounds.

SMILES | EC50 (AGTR1) [nM] | DiscoveRx β-arrestin2 Ymax (%) (AGTR1) | BRET β-Arrestin2 High AT1R Expression Ymax (%) (hAT1R [1]) | EC50 (hAT1R [1]) [nM] | EC50 (hAT1R [2]) [nM]
CCCCC(=O)N(Cc1ccc(-c2cc(Oc3cccc(OC(F)(F)F)c3)ccc2-c2nn[nH]n2)cc1)C1(C(=O)O)CCCCC1 [Example 287] | 175 | 30.5 | 45.9 | 54.1 | > 100000
CCCCC(=O)N(Cc1ccc(-c2cc(-c3cnn(C)c3)ccc2-c2nn[nH]n2)cc1)C1(C(=O)O)CCCCC1 [Example 288, 1-(N-((5′-(1-Methyl-1H-pyrazol-4-yl)-2′-(2H-tetrazol-5-yl)-[1,1′-biphenyl]-4-yl)methyl)pentanamido)cyclohexanecarboxylic acid] | 186 | 29.6 | 69.2 | 474 | > 100000
CCCCC(=O)N(Cc1ccc(-c2cc(-c3cc(F)cc(F)c3)ccc2-c2nn[nH]n2)cc1)C1(C(=O)O)CCCCC1 [Example 289] | 48.2 | 51.1 | 85.2 | 13 | 546
CCCCC(=O)N(Cc1ccc(-c2cc(-c3cccnc3OC)ccc2-c2nn[nH]n2)cc1)C1(C(=O)O)CCCCC1 [Example 290] | 88.5 | 30.7 | 31.2 | 67.3 | 503
CCCCC(=O)N(Cc1ccc(-c2cc(-c3ccc(NC(C)=O)cc3)ccc2-c2nn[nH]n2)cc1)C1(C(=O)O)CCCCC1 [Example 291] | 134 | 10.0 | 9.6 | 1650 | > 100000
CCCCC(=O)N(Cc1ccc(-c2cc(-c3ccc4ncccc4c3)ccc2-c2nn[nH]n2)cc1)C1(C(=O)O)CCCCC1 [Example 292] | 177 | 32.1 | 36.5 | 72.2 | > 100000
CCOc1nc2cccc(C(=O)O)c2n1Cc1ccc(-c2cc(N3CCCC(F)(F)C3)ccc2C(=O)O)cc1 [Example 315] | 242 | 21.5 | 29.1 | 1840 | > 100000
CCOc1nc2cccc(C(=O)OC)c2n1Cc1ccc(-c2cc(-c3ccccc3)ccc2-c2noc(=O)[nH]2)cc1 [Example 316, methyl 2-ethoxy-1-((6′-(5-oxo-4,5-dihydro-1,2,4-oxadiazol-3-yl)-[1,1′:3′,1″-terphenyl]-4-yl)methyl)-1H-benzo[d]imidazole-7-carboxylate] | 53 | 51.6 | 97.5 | 46.2 | > 100000
O=C(O)c1cccc2nc(O)n(Cc3ccc(-c4cc(-c5ccccc5)ccc4-c4nn[nH]n4)cc3)c12 [Example 317] | 87.2 | 51.5 | 39.8 | 319 | 17100
CCOc1nc2cccc(C(=O)O)c2n1Cc1ccc(-c2cc(-c3cccnc3OC)ccc2C(=O)O)cc1 [Example 318] | 47.5 | 54.6 | 93.9 | 132 | 552
CCOc1nc2cccc(C(=O)O)c2n1Cc1ccc(-c2cc(-c3ccc(C(=O)N(C)C)cc3)ccc2C(=O)O)cc1 [Example 320] | 40.7 | 55.7 | 86.8 | 173 | > 100000
CCOc1nc2cccc(C(=O)O)c2n1Cc1ccc(-c2cc(-c3ccc(C(=O)N(C)C)cc3)ccc2-c2noc(=O)[nH]2)cc1 [Example 321] | 56.8 | 83.4 | 86.7 | 108 | 47.9
CCOc1nc2cccc(C(=O)O)c2n1Cc1ccc(-c2cc(-c3cccnc3OC)ccc2-c2noc(=O)[nH]2)cc1 [Example 329] | 7.1 | 77.6 | 91.4 | 2.8 | 31.5
CCCCc1ncc(C(=O)O)n1Cc1ccc(-c2cc(-c3ccccc3)ccc2-c2nn[nH]n2)cc1 [Example 345, 1-((6′-(2H-tetrazol-5-yl)-[1,1′:3′,1″-terphenyl]-4-yl)methyl)-2-butyl-1H-imidazole-5-carboxylic acid, TFA salt] | 18.1 | 44.8 | 92.0 | 17.9 | 12.5
CCCCc1ncc(C(=O)N2CCCC2)n1Cc1ccc(-c2cc(-c3ccccc3)ccc2-c2nn[nH]n2)cc1 [Example 347] | 57.2 | 26.8 | 48.8 | 172 | 242
CCCCc1ncc(C(=O)NCCO)n1Cc1ccc(-c2cc(-c3ccccc3)ccc2-c2nn[nH]n2)cc1 [Example 348] | 7.3 | 50.9 | 85.4 | 34.3 | 89.2
CCCCc1ncc(C(=O)Nc2nc(C)cs2)n1Cc1ccc(-c2cc(-c3ccccc3)ccc2-c2nn[nH]n2)cc1 [Example 349] | 69.2 | 24.8 | 67.6 | 117 | 174
CCCCc1ncc(C(=O)NCCC(C)(C)O)n1Cc1ccc(-c2cc(-c3ccccc3)ccc2-c2nn[nH]n2)cc1 [Example 350] | 8.3 | 47.0 | 94.3 | 15.6 | 25.3
CCCCc1ncc(C(=O)NC2CC3(CCC3)C2)n1Cc1ccc(-c2cc(-c3ccccc3)ccc2-c2nn[nH]n2)cc1 [Example 351] | 18 | 45.4 | 89.6 | 38.9 | 81.1
CCCCc1ncc(C(=O)NC(C)(C)C)n1Cc1ccc(-c2cc(-c3ccccc3)ccc2-c2nn[nH]n2)cc1 [Example 352] | 234 | 35.7 | 62.2 | 290 | 1180
